The structures appear in SMILES notation.

Experimental findings from US8957140B2, “Triazine derivative, ultraviolet absorber, and resin composition” (FUJIFILM Corporation, priority 2009, dated 2015) are described below.

A short description of this series: Light resistance of PMMA polymer film (residual amount after metal halide lamp irradiation). The class given is physicochemical. Particulars: 0.2 mass % compound in PMMA film, 50-μm thick; metal halide lamp (about 290 nm or less cut), 90 mW/cm^2, 63° C., humidity 50%, irradiation for 600 hours; absorbance at maximum absorption wavelength. Here is the method:
A binder solution was prepared by dissolving 22 mass % of a PMMA resin (“DIANAL BR-80”, trade name, produced by Mitsubishi Rayon Co., Ltd.) in methylene chloride. […] The coating solution was applied on glass as a base material by means of a 200 μm blade and dried at 100° C. for 10 minutes to form a 50-μm thick coating, whereby a film was produced. […] The residual amount was calculated according to the following formula: Residual amount (%)=100×(absorbance after irradiation)/(absorbance before irradiation)
Incidentally, the absorbance is a value measured at the maximum absorption wavelength of each compound.

Consider `CCCCCCOc1ccc(-c2nc(-c3ccccc3)nc(-c3ccccc3)n2)c(O)c1` [Comparative Compound A], for which the “Residual Amount (%)” value was 44%.

In the case of `CCCCCCCCOc1ccc(-c2nc(-c3ccc(C)cc3C)nc(-c3ccc(C)cc3C)n2)c(O)c1` [Comparative Compound B], the “Residual Amount (%)” value is recorded as 14%.
